# Test results: patent US20230330093A1, “APPLICATION OF NITROGEN-CONTAINING SATURATED HETEROCYCLIC COMPOUND” (SHANGHAI PHARMACEUTICALS HOLDING CO., LTD., priority 2020, published 2023)
# Tested on: cynomolgus monkeys
# Assay: 4-week safety study: necropsy, gross pathology and organ weights;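 also: daily nasogastric dosing for 28 days, organs weighed at necropsy on day 28 or after a 28-day drug-free recovery (day 56), relative weights expressed as percent of body or brain weight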
# Experimental: Cynomolgus monkeys (5/sex/group) were selected using a computerized randomization procedure based on body weight, and the compound of Formula I was administered to the cynomolgus monkeys by nasogastric feeding at dose levels of 0 (control), 20, 100, 450 mg/kg/day in a volume of 5 ml/kg. Individual dose volumes were adjusted weekly based on body weight of animals. For all the groups, 2/3 of the animals were randomly selected and euthanized on day 28. The remaining animals were euthanized after 28-day drug free period.
# A complete gross necropsy was conducted on all animals by visual inspection at the end of the exposure period (day 28) and the recovery phase (day 56). The following selected organs were trimmed, weighed and evaluated in terms of absolute weight and as a percentage of final body weight or brain weight: brain, heart, kidney, liver, spleen, thymus, testes, epididymides, uterus, ovaries, adrenals and thyroid (including the parathyroid). The following tissues were preserved in 10% neutral buffered formalin: brain, pituitary gland, thyroid (including the parathyroid), trachea, heart, pancreas, spleen, adrenal glands, prostate, ovaries, uterus (including cervix uteri and oviduct), vagina, testes, epididymides, seminal vesicle, esophagus, duodenum, jejunum, ileum, cecum, colon, rectum, mesenteric lymph nodes, Peyer's patches, submaxillary lymph nodes, aorta, eyes, skeletal muscle, sciatic nerve, femur (including metaphysis), mammary gland, sternum, salivary glands, spinal cord, urinary bladder, lung (including the bronchi), liver, kidneys, stomach, bone marrow (sternal), thymus, sternum, gallbladder, any gross lesions or masses. The lung tissue was inflated with fixative at the time of necropsy. All the preserved tissues were paraffin embedded, sectioned, stained with hematoxylin and eosin (HE) and examined microscopically. Bone marrow cellular morphology examination was conducted with both smear (sternum) and paraffin-embedded sternum section.
# For each sex, body weight, rectal temperature, ECG, organ weight, hematological parameters and serum biochemical data were analyzed with a statistical software SAS 9.3. Firstly homogeneity of variance was analyzed using Levene's test. If P>0.05, the one-way ANOVA analysis was employed. If P<0.05, the Kruskal-Wallis test was used. If the resulting ANOVA p-value was <0.05, a comparison of each group using the Dunnett T test was performed. If the resulting Kruskal-Wallis test p-value was <0.05, then the Dunnett T test was performed after data rank conversion.
structure (smiles),measurement,setting,value
COC(=O)NCCCn1nc([C@@H](C)N(C(=O)[C@H]2CNCCO2)C2CC2)c2ccc(C)nc21 [compound of Formula I],Liver Absolute weight,"Female, 20 mg/kg, d 28",58.37 ± 7.38 g
same,Liver Relative weight (/body weight),"Female, 20 mg/kg, d 28",2.06 ± 0.22
same,Liver Relative weight (/brain weight),"Female, 20 mg/kg, d 28",90.10 ± 7.72
same,Thymus Absolute weight,"Female, 20 mg/kg, d 28",1.23 ± 0.40 g
same,Thymus Relative weight (/body weight),"Female, 20 mg/kg, d 28",0.04 ± 0.01
same,Thymus Relative weight (/brain weight),"Female, 20 mg/kg, d 28",1.87 ± 0.46
same,Uterus Absolute weight,"Female, 20 mg/kg, d 28",5.97 ± 1.20 g
same,Uterus Relative weight (/body weight),"Female, 20 mg/kg, d 28",0.21 ± 0.04
same,Uterus Relative weight (/brain weight),"Female, 20 mg/kg, d 28",9.19 ± 1.57
same,kidney Absolute weight,"Female, 20 mg/kg, d 28",12.20 ± 2.23 g
same,kidney Relative weight (/body weight),"Female, 20 mg/kg, d 28",0.43 ± 0.07
same,kidney Relative weight (/brain weight),"Female, 20 mg/kg, d 28",18.73 ± 1.74
same,Liver Absolute weight,"Female, 20 mg/kg, d 56",68.35 ± 3.32 g
same,Liver Relative weight (/body weight),"Female, 20 mg/kg, d 56",2.01 ± 0.07
same,Liver Relative weight (/brain weight),"Female, 20 mg/kg, d 56",104.00 ± 10.62
same,Thymus Absolute weight,"Female, 20 mg/kg, d 56",2.00 ± 0.71 g
same,Thymus Relative weight (/body weight),"Female, 20 mg/kg, d 56",0.06 ± 0.02
same,Thymus Relative weight (/brain weight),"Female, 20 mg/kg, d 56",3.07 ± 1.24
same,Uterus Absolute weight,"Female, 20 mg/kg, d 56",11.30 ± 3.25 g
same,Uterus Relative weight (/body weight),"Female, 20 mg/kg, d 56",0.33 ± 0.07
same,Uterus Relative weight (/brain weight),"Female, 20 mg/kg, d 56",17.30 ± 5.86
same,kidney Absolute weight,"Female, 20 mg/kg, d 56",13.75 ± 0.78 g
same,kidney Relative weight (/body weight),"Female, 20 mg/kg, d 56",0.41 ± 0.06
same,kidney Relative weight (/brain weight),"Female, 20 mg/kg, d 56",20.86 ± 0.06
same,Liver Absolute weight,"Female, 100 mg/kg, d 28",57.60 ± 4.25 g
same,Liver Relative weight (/body weight),"Female, 100 mg/kg, d 28",1.96 ± 0.13
same,Liver Relative weight (/brain weight),"Female, 100 mg/kg, d 28",96.55 ± 7.51
same,Thymus Absolute weight,"Female, 100 mg/kg, d 28",0.73 ± 0.50 g
same,Thymus Relative weight (/body weight),"Female, 100 mg/kg, d 28",0.02 ± 0.02
same,Thymus Relative weight (/brain weight),"Female, 100 mg/kg, d 28",1.18 ± 0.73
same,Uterus Absolute weight,"Female, 100 mg/kg, d 28",7.03 ± 0.94 g
same,Uterus Relative weight (/body weight),"Female, 100 mg/kg, d 28",0.24 ± 0.03
same,Uterus Relative weight (/brain weight),"Female, 100 mg/kg, d 28",11.84 ± 2.02
same,kidney Absolute weight,"Female, 100 mg/kg, d 28",11.67 ± 0.71 g
same,kidney Relative weight (/body weight),"Female, 100 mg/kg, d 28",0.40 ± 0.02
same,kidney Relative weight (/brain weight),"Female, 100 mg/kg, d 28",19.61 ± 1.86
same,Liver Absolute weight,"Female, 100 mg/kg, d 56",68.45 ± 20.01 g
same,Liver Relative weight (/body weight),"Female, 100 mg/kg, d 56",1.86 ± 0.37
same,Liver Relative weight (/brain weight),"Female, 100 mg/kg, d 56",104.90 ± 37.06
same,Thymus Absolute weight,"Female, 100 mg/kg, d 56",2.35 ± 0.49 g
same,Thymus Relative weight (/body weight),"Female, 100 mg/kg, d 56",0.07 ± 0.02
same,Thymus Relative weight (/brain weight),"Female, 100 mg/kg, d 56",3.54 ± 0.52
same,Uterus Absolute weight,"Female, 100 mg/kg, d 56",8.30 ± 3.39 g
same,Uterus Relative weight (/body weight),"Female, 100 mg/kg, d 56",0.23 ± 0.12
same,Uterus Relative weight (/brain weight),"Female, 100 mg/kg, d 56",12.44 ± 4.34
same,kidney Absolute weight,"Female, 100 mg/kg, d 56",14.15 ± 2.33 g
same,kidney Relative weight (/body weight),"Female, 100 mg/kg, d 56",0.39 ± 0.03
same,kidney Relative weight (/brain weight),"Female, 100 mg/kg, d 56",21.60 ± 4.92
same,Liver Absolute weight,"Female, 450 mg/kg, d 28",69.40 ± 3.68 g
same,Liver Relative weight (/body weight),"Female, 450 mg/kg, d 28",2.78 ± 0.31
same,Liver Relative weight (/brain weight),"Female, 450 mg/kg, d 28",112.03 ± 12.42
same,Thymus Absolute weight,"Female, 450 mg/kg, d 28",0.50 ± 0.14 g
same,Thymus Relative weight (/body weight),"Female, 450 mg/kg, d 28",0.02 ± 0.01
same,Thymus Relative weight (/brain weight),"Female, 450 mg/kg, d 28",0.81 ± 0.27
same,Uterus Absolute weight,"Female, 450 mg/kg, d 28",3.50 ± 0.14 g
same,Uterus Relative weight (/body weight),"Female, 450 mg/kg, d 28",0.14 ± 0.01
same,Uterus Relative weight (/brain weight),"Female, 450 mg/kg, d 28",5.63 ± 0.10
same,kidney Absolute weight,"Female, 450 mg/kg, d 28",12.95 ± 0.07 g
same,kidney Relative weight (/body weight),"Female, 450 mg/kg, d 28",0.52 ± 0.03
same,kidney Relative weight (/brain weight),"Female, 450 mg/kg, d 28",20.87 ± 1.10
same,Liver Absolute weight,"Female, 450 mg/kg, d 56",72.40 ± 11.74 g
same,Liver Relative weight (/body weight),"Female, 450 mg/kg, d 56",2.04 ± 0.05
same,Liver Relative weight (/brain weight),"Female, 450 mg/kg, d 56",109.03 ± 13.64
same,Thymus Absolute weight,"Female, 450 mg/kg, d 56",1.40 ± 0.14 g
same,Thymus Relative weight (/body weight),"Female, 450 mg/kg, d 56",0.04 ± 0.01
same,Thymus Relative weight (/brain weight),"Female, 450 mg/kg, d 56",2.12 ± 0.29
same,Uterus Absolute weight,"Female, 450 mg/kg, d 56",9.60 ± 2.40 g
same,Uterus Relative weight (/body weight),"Female, 450 mg/kg, d 56",0.27 ± 0.03
same,Uterus Relative weight (/brain weight),"Female, 450 mg/kg, d 56",14.43 ± 3.09
same,kidney Absolute weight,"Female, 450 mg/kg, d 56",14.75 ± 1.91 g
same,kidney Relative weight (/body weight),"Female, 450 mg/kg, d 56",0.42 ± 0.00
same,kidney Relative weight (/brain weight),"Female, 450 mg/kg, d 56",22.23 ± 2.05
same,Liver Absolute weight,"Male, 20 mg/kg, d 28",69.03 ± 2.87 g
same,Liver Relative weight (/body weight),"Male, 20 mg/kg, d 28",1.82 ± 0.21
same,Liver Relative weight (/brain weight),"Male, 20 mg/kg, d 28",103.68 ± 11.79
same,Thymus Absolute weight,"Male, 20 mg/kg, d 28",1.10 ± 0.20 g
same,Thymus Relative weight (/body weight),"Male, 20 mg/kg, d 28",0.03 ± 0.01
same,Thymus Relative weight (/brain weight),"Male, 20 mg/kg, d 28",1.67 ± 0.43
same,kidney Absolute weight,"Male, 20 mg/kg, d 28",14.30 ± 1.42 g
same,kidney Relative weight (/body weight),"Male, 20 mg/kg, d 28",0.37 ± 0.02
same,kidney Relative weight (/brain weight),"Male, 20 mg/kg, d 28",21.46 ± 2.99
same,Liver Absolute weight,"Male, 20 mg/kg, d 56",71.25 ± 1.77 g
same,Liver Relative weight (/body weight),"Male, 20 mg/kg, d 56",1.44 ± 0.02
same,Liver Relative weight (/brain weight),"Male, 20 mg/kg, d 56",100.96 ± 1.74
same,Thymus Absolute weight,"Male, 20 mg/kg, d 56",2.95 ± 0.07 g
same,Thymus Relative weight (/body weight),"Male, 20 mg/kg, d 56",0.06 ± 0.00
same,Thymus Relative weight (/brain weight),"Male, 20 mg/kg, d 56",4.18 ± 0.08
same,kidney Absolute weight,"Male, 20 mg/kg, d 56",16.40 ± 3.11 g
same,kidney Relative weight (/body weight),"Male, 20 mg/kg, d 56",0.33 ± 0.06
same,kidney Relative weight (/brain weight),"Male, 20 mg/kg, d 56",23.16 ± 3.43
same,Liver Absolute weight,"Male, 100 mg/kg, d 28",72.93 ± 14.69 g
same,Liver Relative weight (/body weight),"Male, 100 mg/kg, d 28",1.83 ± 0.25
same,Liver Relative weight (/brain weight),"Male, 100 mg/kg, d 28",100.31 ± 9.48
same,Thymus Absolute weight,"Male, 100 mg/kg, d 28",1.57 ± 0.90 g
same,Thymus Relative weight (/body weight),"Male, 100 mg/kg, d 28",0.04 ± 0.03
same,Thymus Relative weight (/brain weight),"Male, 100 mg/kg, d 28",2.27 ± 1.44
same,kidney Absolute weight,"Male, 100 mg/kg, d 28",15.13 ± 3.62 g
same,kidney Relative weight (/body weight),"Male, 100 mg/kg, d 28",0.37 ± 0.06
same,kidney Relative weight (/brain weight),"Male, 100 mg/kg, d 28",20.85 ± 3.95
same,Liver Absolute weight,"Male, 100 mg/kg, d 56",84.75 ± 5.59 g
same,Liver Relative weight (/body weight),"Male, 100 mg/kg, d 56",1.76 ± 0.06
same,Liver Relative weight (/brain weight),"Male, 100 mg/kg, d 56",115.98 ± 8.59
same,Thymus Absolute weight,"Male, 100 mg/kg, d 56",2.45 ± 0.35 g
same,Thymus Relative weight (/body weight),"Male, 100 mg/kg, d 56",0.05 ± 0.01
same,Thymus Relative weight (/brain weight),"Male, 100 mg/kg, d 56",3.33 ± 0.02
same,kidney Absolute weight,"Male, 100 mg/kg, d 56",17.85 ± 1.91 g
same,kidney Relative weight (/body weight),"Male, 100 mg/kg, d 56",0.37 ± 0.03
same,kidney Relative weight (/brain weight),"Male, 100 mg/kg, d 56",24.36 ± 0.80
same,Liver Absolute weight,"Male, 450 mg/kg, d 28",94.37 ± 12.72 g
same,Liver Relative weight (/body weight),"Male, 450 mg/kg, d 28",2.42 ± 0.20
same,Liver Relative weight (/brain weight),"Male, 450 mg/kg, d 28",135.54 ± 14.14
same,Thymus Absolute weight,"Male, 450 mg/kg, d 28",0.90 ± 0.10 g
same,Thymus Relative weight (/body weight),"Male, 450 mg/kg, d 28",0.02 ± 0.01
same,Thymus Relative weight (/brain weight),"Male, 450 mg/kg, d 28",1.30 ± 0.20
same,kidney Absolute weight,"Male, 450 mg/kg, d 28",16.77 ± 2.31 g
same,kidney Relative weight (/body weight),"Male, 450 mg/kg, d 28",0.43 ± 0.03
same,kidney Relative weight (/brain weight),"Male, 450 mg/kg, d 28",24.07 ± 2.45
same,Liver Absolute weight,"Male, 450 mg/kg, d 56",80.90 ± 4.95 g
same,Liver Relative weight (/body weight),"Male, 450 mg/kg, d 56",1.64 ± 0.22
same,Liver Relative weight (/brain weight),"Male, 450 mg/kg, d 56",119.80 ± 2.56
same,Thymus Absolute weight,"Male, 450 mg/kg, d 56",2.20 ± 0.42 g
same,Thymus Relative weight (/body weight),"Male, 450 mg/kg, d 56",0.04 ± 0.01
same,Thymus Relative weight (/brain weight),"Male, 450 mg/kg, d 56",3.25 ± 0.50
same,kidney Absolute weight,"Male, 450 mg/kg, d 56",18.75 ± 0.21 g
same,kidney Relative weight (/body weight),"Male, 450 mg/kg, d 56",0.38 ± 0.02
same,kidney Relative weight (/brain weight),"Male, 450 mg/kg, d 56",27.81 ± 1.42
same,absolute or relative weight of uterus,high-dose monkeys,lower
same,relative weight of liver and kidney,high-dose monkeys,Higher
same,relative weight of thymus,high-dose monkeys,lower
same,macroscopic findings related to administration,necropsy day 28 / day 56,no macroscopic findings for monkeys deemed related to administration of the test article except mild intestinal tympanites and thymus atrophy for the monkey that died early
